Measurements from publication PMC11134387, “Cancer-Stem-Cell Phenotype-Guided Discovery of a Microbiota-Inspired Synthetic Compound Targeting NPM1 for Leukemia” (JACS Au, 2024).

Columns and labels:
[1] = test system: MCF-7-derived mamospheres; assay: Formation of MCF-7-derived mamospheres (CSC tumorspheres); format: cell-based; details: for inhibition at 10 µM / inhibition at 1 µM / inhibition at 5 µM: Homo sapiens, MCF7, read-out: Inhibition of tumorsphere formation (%) MCF-7; for inhibition at 1 µM: @1 µM (footnote b); for Formation of tumorspheres (in words): MCF-7 mamospheres and HCT-116 colonospheres, noncytotoxic concentration; for inhibition at 5 µM: @5 µM (footnote d)
Procedure: (§1) (BD Biosciences, Franklin Lakes, NJ, USA). All cells were maintained at 37 °C in a humidified incubator in an atmosphere of 5% CO2, and passaged every 2–3 days.
(§2) Additionally, they were cultured using RPMI media (Gibco/Life Technologies; Grand […]
(§3) Colonospheres, mamospheres and colony formation unit assays. 30.000 cells per well of MCF-7 cells (mamos pheres), HCT-116 cells (colonospheres) and CD34+ cells from patients (colony formation units) were seeded in serum free non- adherent medium or […]
(§4) MethoCult (Stem Cell). […]

[2] = test system: HCT-116; assay: Cytotoxic effect in colon tumor cell line (MTT); details: for viability at 10 µM: HCT-116, read-out: Viability (%) HCT-116, @10 µM; for viability at 1 µM: HCT-116, read-out: Viability (%) HCT-116, @1 µM (footnote b)
Procedure: (§5) The cytotoxic effect was determined in breast (MCF-7) and colon (HCT-116) tumor cell lines using MTT assays.
(§6) Cells were seeded at 3 × 10^4 cells/mL in 96-well plates. The test compound was diluted in PBS. […] Viability was evaluated by MTT or WST-1 and dose/response curves were performed.

[3] = test system: MCF-7; assay: Cytotoxic effect in breast tumor cell line (MTT); details: for viability at 10 µM / viability at 1 µM / viability at 5 µM: Homo sapiens; for viability at 10 µM: MCF7, read-out: Viability (%) MCF-7, @10 µM; for viability at 1 µM: MCF7, read-out: Viability (%) MCF-7, @1 µM (footnote b); for viability at 5 µM: MCF7, read-out: Viability (%) MCF-7, @5 µM (footnote d)
Procedure: as §5, §6

[4] = test system: HCT-116-derived colonospheres; assay: Formation of HCT-116-derived colonospheres (CSC tumorspheres); format: cell-based; details: for inhibition at 1 µM: @1 µM (footnote b)
Procedure: as §1, §2, §3, §4

[5] = Viability of non-tumor fibroblast cell line; format: cell-based; details: human, IMR90 non-tumor fibroblasts; for viability at 48 h, 1 µM: @1 µM (footnote b)
Procedure: The test compound was diluted in PBS.
Viability (%) tum orsphere form ation (%)

[6] = Plasma protein binding, equilibrium dialysis (RED); format: in vitro ADME; details: mouse serum
Procedure: Based on the encouraging results obtained in ex vivo models of AML, we further assessed the therapeutic potential of the new NPM1 inhibitor in vivo. Prior to the evaluation of the compound in an animal model of AML, in vivo pharmacokinetic studies were addressed. Following a single intraperitoneal administration of UCM-13369 at a dose of 25 mg/kg, levels of 200–600 μg/L were detected in mouse peripheral blood up to 6 h (Figure 6A). Plasma protein binding of the compound in mouse serum was measured using an equilibrium dialysis assay, indicating a bound fraction of 83 ± 1%. Next, the efficacy of the compound was evaluated in immunodeficient mice after injection of OCI-AML3-ffLuc-GFP cells as an AML animal model. […]
coupled to a liquid nanochromatography Easy nLC 1200 System (Thermo Scientific).
Once digested, mutant NPM1 C+ C-end sample w as injected into a EASY-Spray™ C18 column, and digestion peptides were separated by using a lineal phase gradi ent (A: 0.1% formic acid in water; B: 20% acetonitrile, 0.1% formic acid in water) for 120 min. Spectra were acquired in DDA m ode, analyzing the 10 higher intensity parent ions in each cycl e.
Proteome Discoverer (Thermo Scientific) was used to align the spectra with the C-end […]
Random exclusion of AIRs was set to 2%. […] Clusters were classifi ed according to H ADDOCK score and stru ctures w er e analyzed with UCSF ChimeraX).10 […]

[7] = Homo sapiens, HCT-116, @10 µM, read-out: Inhibition of tumorsphere formation (%) HCT-116
[8] = Homo sapiens, HCT-116, read-out: Inhibition of tumorsphere formation (%) HCT-116

Structure (SMILES)	inhibition at 10 µM ([1]; @10 µM) [%]	viability at 10 µM ([2]; Homo sapiens) [%]	viability at 10 µM [3] [%]	inhibition at 10 µM [4, 7] [%]	also measured
COc1ccc([C@@H]2CC(=O)N(CC3CC3)C[C@H]2N)cc1 [1a]	0	70 ± 2	91 ± 7	0	–
COc1ccc(C2CC(=O)N(CC3CC3)CC2N)cc1 (stereo not shown) [1b]	0	97 ± 2	80 ± 2	0	–
COc1ccc([C@@H]2CCN(CC3CC3)C[C@H]2N)cc1 [2a]	0	90 ± 1	96 ± 3	0	–
COc1ccc([C@H]2CCN(CC3CC3)C[C@@H]2N)cc1 [2b]	0	94 ± 3	97 ± 3	0	–
COc1ccc([C@@H]2CCNC[C@H]2NCC2CC2)cc1 [3a]	0	95 ± 1	98 ± 2	0	–
COc1ccc([C@H]2CCNC[C@@H]2NCC2CC2)cc1 [3b]	0	94 ± 3	95 ± 4	0	–
COc1ccc([C@@H]2Cc3[nH]c4ccccc4c3[C@H](CCNCC3CC3)[C@H]2N)cc1 [4a, 4-{2-[(Cyclopropylmethyl)amino]ethyl}-2-(4-methoxyphenyl)-2,3,4,9-tetrahydro-1H-carbazol-3-amine]	–	–	–	–	inhibition at 1 µM [1]: 0%; viability at 0.1 µM ([2]; Homo sapiens, HCT-116, read-out: Viability (%) HCT-116, @0.1 µM (footnote c)): 85 ± 2%; viability at 1 µM [3]: 92 ± 7%; inhibition at 0.1 µM ([4]; Homo sapiens, HCT-116, @0.1 µM (footnote c), read-out: Inhibition of tumorsphere formation (%) HCT-116): 0%
COc1ccc([C@H]2Oc3ccccc3[C@H]3[C@@H](N)[C@H](c4ccc(OC)cc4)C(CNCC4CC4)=C[C@@H]32)cc1 [5a]	–	–	–	–	inhibition at 1 µM [1]: 100%; Formation of tumorspheres (in words) [1]: completely inhibit; viability at 1 µM ([2]; Homo sapiens): 87 ± 1%; viability at 1 µM [3]: 99 ± 1%; inhibition at 1 µM [4, 8]: 100%; viability at 48 h, 1 µM [5]: 83 ± 6%; viability at 48 h, 5 µM [5]: 20 ± 5%
COc1ccc([C@H]2C(CNCC3CC3)=C[C@@H]3[C@H](c4ccccc4O[C@H]3c3ccc(OC)cc3)[C@@H]2N)cc1 [5b]	–	–	–	–	inhibition at 1 µM [1]: 100%; Formation of tumorspheres (in words) [1]: completely inhibit; viability at 1 µM ([2]; Homo sapiens): 94 ± 6%; viability at 1 µM [3]: 87 ± 1%; inhibition at 1 µM [4, 8]: 100%; viability at 48 h, 1 µM [5]: 98 ± 2%; viability at 48 h, 5 µM [5]: 28 ± 7%
COc1ccc([C@@H]2C(CNCC3CC3)=C[C@H]3[C@@H](c4ccccc4OC3(C)C)[C@H]2N)cc1 [6a]	–	–	–	–	inhibition at 5 µM [1]: 100%; Formation of tumorspheres (in words) [1]: completely inhibit; viability at 1 µM ([2]; Homo sapiens): 81 ± 6%; viability at 5 µM [3]: 94 ± 11%; inhibition at 1 µM [4, 8]: 100%; viability at 48 h, 1 µM [5]: 95 ± 5%; viability at 48 h, 5 µM [5]: 53 ± 12%
COc1ccc([C@H]2C(CNCC3CC3)=C[C@@H]3[C@H](c4ccccc4OC3(C)C)[C@@H]2N)cc1 [6b]	–	–	–	–	inhibition at 5 µM [1]: 100%; Formation of tumorspheres (in words) [1]: completely inhibit; viability at 1 µM ([2]; Homo sapiens): 78 ± 9%; viability at 5 µM [3]: 94 ± 5%; inhibition at 1 µM [4, 8]: 100%; viability at 48 h, 5 µM [5]: 57 ± 13%
COc1ccc2c(c1)[C@H]1C(=NO)N(CC3CC3)C[C@@H]1C(C)(C)O2 [7a]	0	92 ± 1	98 ± 1	0	–
COc1ccc2c(c1)C1C(=NO)N(CC3CC3)CC1C(C)(C)O2 (stereo not shown) [7b]	0	95 ± 2	96 ± 2	0	–
COc1ccc2c(c1)[C@H]1CN(CC3CC3)C[C@@H]1C(C)(C)O2 [8a]	0	94 ± 6	65 ± 1	0	–
COc1ccc2c(c1)C1CN(CC3CC3)CC1C(C)(C)O2 (stereo not shown) [8b]	0	93 ± 2	98 ± 1	0	–
COc1ccc2c(c1)[C@H]1C(=O)N(CC3CC3)C[C@@H]1C(C)(C)O2 [9a]	0	94 ± 2	73 ± 5	0	–
COc1ccc2c(c1)C1C(=O)N(CC3CC3)CC1C(C)(C)O2 (stereo not shown) [9b]	0	90 ± 3	65 ± 2	0	–
COc1ccc([C@H]2Oc3ccccc3[C@@H](CN)[C@@H]2C(=O)NCC2CC2)cc1 [10a]	4 ± 2	61 ± 8	89 ± 6	2 ± 1	melting point: 175 to 177 °C
COc1ccc([C@@H]2Oc3ccccc3[C@H](CN)[C@H]2C(=O)NCC2CC2)cc1 [10b]	0	70 ± 1	94 ± 5	0	–
COc1ccc2c(c1)[C@@H](CN)[C@H](C(=O)NCC1CC1)C(C)(C)O2 [11a]	0	94 ± 2	92 ± 2	0	–
COc1ccc2c(c1)[C@H](CN)[C@@H](C(=O)NCC1CC1)C(C)(C)O2 [11b]	0	94 ± 2	99 ± 1	0	–
COc1ccc2c(c1)[C@@H](CN)[C@H](CNCC1CC1)C(C)(C)O2 [12a]	0	90 ± 4	90 ± 2	0	–
COc1ccc2c(c1)[C@H](CN)[C@@H](CNCC1CC1)C(C)(C)O2 [12b]	0	92 ± 3	73 ± 3	0	–
COc1ccc(C2C(CNCC3CC3)=Cc3nccnc3N2C)cc1 (stereo not shown) [13a]	0	85 ± 7	–	0	–
COc1ccc(C2C(CNCC3CC3)=Cc3nccnc3N2C)cc1 (stereo not shown) [13b]	–	–	–	–	Inhibition of tumorsphere formation (%) MCF-7 ([1]; @10 µM): 0%; Viability (%) HCT-116 ([2]; @10 µM): 90 ± 3%; Viability (%) MCF-7 ([3]; @10 µM): 89 ± 6%; Inhibition of tumorsphere formation (%) HCT-116 ([4]; @10 µM): 0%
CC(C)NCC(O)COc1cccc2ccccc12 (stereo not shown) [Propranolol, reference compound]	–	–	–	–	Plasma protein binding, bound fraction [6]: 86±2%
